According to PubChem BioAssay AID179 (DTP/NCI, 2004):
Values joined by “and” are separate entries in the source; they are usually repeats but may differ in a detail not shown here. Identical values can stand only once. Active and inactive are the calls of the source.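 Rule for the calls: active = compounds giving half or more protection of infected cells from virus-caused growth loss, again on retest; inactive = the rest.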 Where a SMILES comes first, the peptide text is derived from it. The star is where a group is joined. Cbz = O=C(OCc1ccccc1)*

System: CEM cells HIV-1 protection, formazan growth assay
Assay: NCI AIDS Antiviral Assay
Conditions: for IC50: measured here: growth of uninfected CEM cells
Method in brief: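 Protection of CEM cells against HIV-1 was scored from cell growth (soluble formazan) across five concentrations, with parallel uninfected cells. Lack of protection may reflect toxicity.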

| SMILES | EC50 [µM] | IC50 | outcome |
| --- | --- | --- | --- |
| Nc1nc(-c2ccccc2)cc(-c2ccc(F)cc2)c1-c1ccc(Cl)cc1 | > 200 | 132 µM | – |
| NC(=O)N/N=C(/c1nc2ccc([N+](=O)[O-])cc2[nH]c1=O)C(O)c1ccco1 (centres undefined) | > 182 | > 182 µM | – |
| COC(=O)Cc1nc2ccccc2o1 | > 1290 | 33.9 µM | – |
| CCNC(=O)N(CC)CN(CC)C(=O)NCC | > 182 | 95.5 µM | – |
| COc1ccc(/C=C2/C(=O)N(C(=O)c3ccccc3O)N=C2C)cc1 | > 56.2 | 0.0501 µM | – |
| COC(=O)CSSCc1ccccc1 | > 200 | 5.25 µM | – |
| COc1cc(-c2cc(=O)c3c(O)c(OC)c(OC)cc3o2)ccc1O | > 11 | > 11 µM | – |
| C=CCOc1c(C)cc(C#N)cc1C | – | – | inactive |
| O=C(Cc1ccccc1)ONC(CCCCNC(=O)OCc1ccccc1)C(=O)Nc1ccc(Cc2ccc(NC(=O)C(CCCCNC(=O)OCc3ccccc3)NC(=O)OCc3ccccc3)cc2)cc1 (centres undefined) | > 100 | > 100 µM | – |
| COc1ccc(NC2=CC(C)(C(=O)O)OC2=O)cc1 (centres undefined) | > 200 | > 200 µM | – |
| COC1(O)c2cccc(Cl)c2C(=O)N1C1(C(N)=O)CCCCC1 (centres undefined) | – | – | inactive |
| CC(=O)OC1N(C(C)=O)C(SC23CC4CC(CC(C4)C2)C3)C(C)=CC1(C)OC(C)=O (centres undefined) | > 200 | 126 µM | – |
| COc1ccc2c(n1)Sc1c(Cl)nc(N)nc1N2 | > 158 | > 158 µM | – |
| CC(=O)NC(C=O)C(O[C@H](C)C(=O)NC(C)C(=O)NC(CCC(N)=O)C(=O)OCc1ccccc1)C(O)C(O)COC(=O)CCNc1c2ccccc2nc2cccc([N+](=O)[O-])c12 (some centres undefined) | > 21.4 | 15.1 µM | – |
| O=C1C=CC(=O)c2c1ccc1c3ccccc3n(Cc3ccccc3)c21 | > 200 | 3.24 µM | – |
| Cc1ccc2c(c1)[nH]c(=S)n2C=C(C(N)=O)C(N)=O | > 200 | > 200 µM | – |
| C[N+](C)(C)CC(=O)N/N=C(\C(=O)NC1=C(Cl)C(=O)c2ccccc2C1=O)C(C#N)c1nc(-c2ccc([N+](=O)[O-])cc2)cs1 (centres undefined) | – | – | inactive |
| CCOC(=O)CCC(NC(=O)OCc1ccccc1)C(=O)NC(CC(=O)OC)C(=O)NC(CC(=O)OC)C(=O)NC(CCC(=O)OCC)C(=O)OCC (centres undefined) (Cbz-E(OEt)D(OMe)D(OMe)E(OEt)-OEt; configuration not given here) | > 50.1 | > 50.1 µM | – |
| CC1(C)SCC(COC(=O)c2ccccc2)S1 (centres undefined) | > 200 | > 200 µM | – |
| O=C(NC1CCCCCC1)C1C(=O)N(C2CCCCCC2)C(=O)/C1=N\O (centres undefined) | – | – | inactive |
| CC(c1ccc(Br)cc1)C(C(=O)O)C(=O)O (centres undefined) | – | – | inactive |

| SMILES | EC50 [µM] | IC50 | outcome |
| --- | --- | --- | --- |
| CC1OC(OC2C(O)COC(OC3C(C)OC(OC4C(OC(=O)[C@]56CCC(C)(C)C[C@@H]5C5=CCC7[C@@]8(C)C[C@H](O)[C@H](OC9OC(CO)C(O)C(O)C9O)[C@@](C)(CO)[C@@H]8CC[C@@]7(C)[C@]5(C)CC6)OCC(O)C4O)C(O)C3OC3OCC(O)(CO)C3O)C2O)C(O)C(O)C1O (some centres undefined) | > 30.2 | 17.8 µM | – |
| Cc1c(NC(=O)CSC(=S)N(C)C)c(=O)n(-c2ccccc2)n1C | 89.1 | > 200 µM | – |
| CC1(C)CC(=O)C(C=NC(=O)c2ccncc2)=C(O)C1 | 100 | > 200 µM | – |
| Cc1cc(O)c2c3c1C(=O)Oc1c(CO)c(O)c(C(=O)O)c(c1O3)C=NN=Cc1c3c(c(CO)c(O)c1C(=O)O)OC(=O)c1c(C)cc(O)c(c1O3)C=NN=C2 | – | – | inactive |
| CN(N)/N=N/c1nc[nH]c1[N+](=O)[O-] | > 200 | 5.62 µM | – |
| COC(=O)c1nn(-c2ccc(Cl)cc2)c2nc3ccccc3c-2c1C(=O)OC | > 32.4 | > 32.4 µM | – |
| Cc1cc2ncn(C3CCCO3)c2cc1C (centres undefined) | > 200 | > 200 µM | – |
| N#Cc1cccc(C2SCc3nc4ccccc4n32)c1 (centres undefined) | 19.5 | 60.3 µM | – |
| O=C1CC(c2ccccc2)NN1c1ccccc1 (centres undefined) | – | – | inactive |
| OC1CCN2Cc3ccccc3N=C12 (centres undefined) | > 200 | > 200 µM | – |
| Cc1ccc(-n2c(O)c3c(N)n[nH]c3c(C#N)c2=O)cc1 | 155 | > 200 µM | – |
| COc1ccc(/C=C2\C(=O)N(C(=O)c3ccc(NC(C)=O)cc3)N=C2C)cc1OC | > 9.33 | > 9.33 µM | – |
| COc1cc(C(=O)N/N=C/N(C)C)cc(OC)c1OC | > 200 | > 200 µM | – |
| COC(=O)c1cnn2c1n[n+]([O-])c1ccccc12 | > 200 | > 200 µM | – |
| CC1(C)C[C@H](O)[C@H](O)[C@]23C(=O)O[C@H](O)[C@H]2C(C=O)=CC[C@@H]13 | > 200 | > 200 µM | – |
| CSC1=Nc2cc3c(cc2C(=O)N2C[C@H](O)CC12)OCO3 (some centres undefined) | > 200 | 110 µM | – |
| O=[N+]([O-])CCc1cccc([N+](=O)[O-])c1 | > 1260 | > 1260 µM | – |
| COC(=O)CN1SC2(SC13C(C)(C)C(=O)C3(C)C)C(C)(C)C(=O)C2(C)C | > 200 | 50.1 µM | – |
| COc1cc(C(=O)/C=C/c2ccc(OCC#N)cc2)cc(OC)c1OC | > 200 | 29.5 µM | – |
| CCn1ncc2c1nc(-c1ccccc1)c[n+]2[O-] | > 200 | > 200 µM | – |
| CN(C)CC1CCC/C(=C\c2ccc(Cl)c(Cl)c2)C1=O (centres undefined) | – | – | inactive |

| SMILES | EC50 [µM] | IC50 | outcome |
| --- | --- | --- | --- |
| CC(=O)N(O)C(C)=O | > 2140 | 1780 µM | – |
| CCN(CCCl)c1cc(CN(C)C)cc(NC(=O)c2ccc(C(=O)Nc3cc(CN(C)C)cc(N(CC)CCCl)c3)cc2)c1 | > 2 | 0.000631 µM | – |
| Cn1ccc(=NS(=O)(=O)c2ccccc2)cc1 | – | – | inactive |
| CCN(CC)C(=O)C[n+]1c2ccccc2n2cc(N)ccc21 | > 200 | > 200 µM | – |
| COc1ccc(N2C(=O)C3CC(c4ccc(C)cc4)c4c([nH]c5ccccc45)C3C2=O)cc1 (centres undefined) | > 2.4 | > 2.4 µM | – |
| O=S1(=O)C=Cc2ccccc2CC1 | > 1290 | 741 µM | – |
| CC(=O)NC(C(=O)NC(C)C(=O)N1CCCC1C(=O)O)C(C)C (stereo not drawn) (Ac-Val-Ala-Pro-OH; configuration not given here) | > 200 | > 200 µM | – |
| COc1ccc(NC(=O)/C(N=O)=C(/C)O)cc1 | > 1050 | > 1050 µM | – |
| CCOC(=O)C(Cc1ccc([N+](=O)[O-])cc1)NC(=O)CC1c2ccccc2-c2ccccc21 (centres undefined) | > 11.7 | > 11.7 µM | – |
| CCOc1ccc(/C=C\c2ccnc3ccccc23)cc1OCC | 0.0631 | 38 µM | – |
| Nc1c2c(nc3ccccc13)CCCC2 (tested in a mixture with another compound) | > 4170 | 25.7 µM and 39.8 µM | – |
| O=[N+]([O-])c1ccc2nc(/C=C(\O)c3ccccc3)c(/C=C(\O)c3ccccc3)nc2c1 | > 200 | 20 µM | – |
| Clc1ccc2c(c1)N(CCCN1CCCC13CCCCC3)c1ccccc1S2 | > 200 | 102 µM | – |
| COc1ccc2nc(NC(=O)C(=O)C(C#N)c3ccc([N+](=O)[O-])cc3)sc2c1 (centres undefined) | – | – | inactive |
| O=C1C2C3C4C1C1C2[C@H](OCc2ccccc2)C3C1[C@H]4OCc1ccccc1 (some centres undefined) | > 200 | 42.7 µM | – |
| Cc1ccc(NC(=O)CC(=O)n2nc(-c3ccccc3)c(N=Nc3ccccc3[N+](=O)[O-])c2-c2ccccc2)cc1 | > 25.1 | > 25.1 µM | – |
| COC(=O)C1=NC(=S)NC(c2ccccc2)C1c1nc2ccccc2s1 (centres undefined) | – | – | inactive |
| O=C1CCC(c2nc3ccccc3o2)C(=O)N1 (centres undefined) | > 1070 | > 1070 µM | – |
| CC(=O)OCC1OC(Nc2ccc3nc(C)n(-c4cccc(C)c4)c(=O)c3c2)C(OC(C)=O)C(OC(C)=O)C1OC(C)=O (centres undefined) | > 126 | > 126 µM | – |
| Cc1cc(C#N)c(Nc2ccc(F)cc2[N+](=O)[O-])s1 | > 200 | > 200 µM | – |
| CCOC(=O)COc1ccc(C[C@H](NC(=O)O[C@H]2CCOC2)[C@H](O)CN(CC(C)C)S(=O)(=O)c2ccc(N)cc2)cc1 | 0.0589 | 64.6 µM | – |

| SMILES | EC50 [µM] | IC50 | outcome |
| --- | --- | --- | --- |
| Cc1cccc(NC(=S)Nc2cccc(C)n2)n1 | > 200 | > 200 µM | – |
| O=C1C[C@@H]2[C@@H](C=CC23CCCC3)N1O | – | – | inactive |
| N/N=C(\CCN1CCCC1)CC(c1ccccc1)c1c(O)c2ccccc2oc1=O (centres undefined) | > 58.9 | > 58.9 µM | – |
| CCOC(=O)c1nc2cc(F)cc(F)c2[nH]c1=O | > 200 | 162 µM | – |
| CC(C)(C)c1cc(C(c2ccccc2)c2ccccc2)cc(C(C)(C)C)c1O | > 60.3 | 33.1 µM | – |
| COc1ccc(CCc2ccccc2CC(=O)O)cc1 | > 933 | 589 µM | – |
| CC(C)(C)C1CCC2(CC1)c1[nH]c3ccccc3c1C1(CCC(C(C)(C)C)CC1)c1[nH]c3ccccc3c12 (centres undefined) | > 7.41 | > 7.41 µM | – |
| CNS(=O)(=O)NNS(=O)(=O)c1ccc(F)cc1 | > 631 | 214 µM | – |
| O=C(c1ccccc1)c1cc(N=Nc2ccc(/C=C/c3ccc(N=Nc4cc(C(=O)c5ccccc5)c5cccnc5c4O)cc3S(=O)(=O)O)c(S(=O)(=O)O)c2)c(O)c2ncccc12 | > 38.9 | > 38.9 µM | – |
| CCCCNC(=S)Nc1nc(C(=O)NNC(=S)NCc2ccccc2)cs1 | > 126 | 26.3 µM | – |
| NC1(C(=O)N2CCCC2C(=O)O)CCCC1 (centres undefined) (HELM PEPTIDE1{[NC1(C(=O)[*:2])CCCC1].[O=C(O)C1CCCN1[*:1]]}$$$$V2.0) | > 200 | > 200 µM | – |
| CCOC(=O)C(=Cc1ccc(Br)cc1)C(=O)OCC | > 57.5 | 11.7 µM | – |
| O=C(OCc1ccccc1)N1CCN(C(=O)OCc2ccccc2)CCN(C(=O)OCc2ccccc2)CCN(C(=O)OCc2ccccc2)CCN(C(=O)OCc2ccccc2)CC1 | > 100 | > 100 µM | – |
| CCn1c(=O)c2nc(SC)sc2n(-c2ccc(C)cc2)c1=O | – | – | inactive |
| COc1nc(C(O)C2OC(C)(C)OCC2O)[nH]c1C#N (centres undefined) | – | – | inactive |
| CC1(C)OC(=O)N(c2ccccc2)C12C=Cc1cc([N+](=O)[O-])ccc1O2 (centres undefined) | > 151 | 61.7 µM | – |
| CCOC(=O)c1ccc(NC(=O)SCCC(=O)O)cc1 | – | – | inactive |
| CCCCNC(=O)/C(=C\c1ccc(OC)c(OC)c1)NC(=O)c1ccccc1 | > 200 | > 200 µM | – |
| O=C(Cn1c2ccc(Br)cc2c2nc3ccccc3nc21)N1CCOCC1 | > 100 | > 100 µM | – |
